Data on 31 compounds can be found in US8268862B2, “Sirtuin modulating compounds” (Sirtris Pharmaceuticals, Inc., priority 2007, dated 2012).

This test concerns the target T1, SIRT1 (Homo sapiens, UniProt Q96EB6).
T1 sequence (Q96EB6 1-747): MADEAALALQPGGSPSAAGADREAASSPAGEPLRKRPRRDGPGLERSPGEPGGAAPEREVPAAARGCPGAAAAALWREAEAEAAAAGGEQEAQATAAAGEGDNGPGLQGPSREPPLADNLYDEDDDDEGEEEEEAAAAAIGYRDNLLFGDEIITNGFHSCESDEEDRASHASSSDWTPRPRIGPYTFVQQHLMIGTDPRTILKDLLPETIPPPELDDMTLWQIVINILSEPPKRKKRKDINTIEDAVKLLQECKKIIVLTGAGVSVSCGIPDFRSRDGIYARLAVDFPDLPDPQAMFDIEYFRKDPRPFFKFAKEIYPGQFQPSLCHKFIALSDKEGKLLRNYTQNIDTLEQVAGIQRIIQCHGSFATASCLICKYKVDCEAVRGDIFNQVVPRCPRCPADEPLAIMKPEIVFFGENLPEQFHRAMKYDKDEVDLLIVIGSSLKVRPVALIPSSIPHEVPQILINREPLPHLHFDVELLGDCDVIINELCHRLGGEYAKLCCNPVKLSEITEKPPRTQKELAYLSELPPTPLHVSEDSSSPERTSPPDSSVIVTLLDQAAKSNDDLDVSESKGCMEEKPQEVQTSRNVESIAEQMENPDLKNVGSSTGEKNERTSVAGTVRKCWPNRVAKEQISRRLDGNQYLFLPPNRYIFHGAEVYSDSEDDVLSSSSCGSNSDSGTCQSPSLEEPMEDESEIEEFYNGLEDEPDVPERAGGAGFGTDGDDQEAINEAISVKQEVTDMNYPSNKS
Put plainly: mass spectrometry based SIRT1 deacetylation assay (activation). The format is biochemical. The conditions noted are these: 0.5 μM peptide substrate, 120 μM βNAD+, 10 nM SIRT1, 25 min at 25° C.; for EC1.5 (concentration of test compound that results in 150% activation of SIRT1): NA = not active in the assay; for Emax: read-out: % FOLD ACT. (percent maximum fold activation of SIRT1). The source says:
A mass spectrometry based assay was used to identify modulators of SIRT1 activity. The mass spectrometry based assay utilizes a peptide having 20 amino acid residues as follows: Ac-EE-K(biotin)-GQSTSSHSK(Ac)NleSTEG-K(5TMR)-EE-NH2 (SEQ ID NO: 1) wherein K(Ac) is an acetylated lysine residue and Nle is a norleucine. The peptide is labeled with the fluorophore 5TMR (excitation 540 nm/emission 580 nm) at the C-terminus. The sequence of the peptide substrate is based on p53 with several modifications. In addition, the methionine residue naturally present in the sequence was replaced with the norleucine because the methionine may be susceptible to oxidation during synthesis and purification.
Test compounds may be added to the reaction as described above. […] After the 25 minute incubation with SIRT1, 10 μL of 10% formic acid is added to stop the reaction. Reactions are sealed and frozen for later mass spec analysis. Determination of the mass of the substrate peptide allows for precise determination of the degree of acetylation (i.e. starting material) as compared to deacetylated peptide (product).
A control for inhibition of sirtuin activity is conducted by adding 1 μL of 500 mM nicotinamide as a negative control at the start of the reaction (e.g., permits determination of maximum sirtuin inhibition). A control for activation of sirtuin activity is conducted using 10 nM of sirtuin protein, with 1 μL of DMSO in place of compound, to determine the amount of deacetylation of the substrate at a given timepoint within the linear range of the assay. This timepoint is the same as that used for test compounds and, within the linear range, the endpoint represents a change in velocity.
For the above assay, SIRT1 protein was expressed and purified as follows. […] The protein was expressed by induction with 1 mM IPTG as an N-terminal His-tag fusion protein at 18° C. overnight and harvested at 30,000×g. Cells were lysed with lysozyme in lysis buffer (50 mM Tris-HCl, 2 mM Tris[2-carboxyethyl]phosphine (TCEP), 10 μM ZnCl2, 200 mM NaCl) and further treated with sonication for 10 min for complete lysis. The protein was purified over a Ni-NTA column (Amersham) and fractions containing pure protein were pooled, concentrated and run over a sizing column (Sephadex S200 26/60 global). The peak containing soluble protein was collected and run on an Ion-exchange column (MonoQ). Gradient elution (200 mM-500 mM NaCl) yielded pure protein. This protein was concentrated and dialyzed against dialysis buffer (20 mM Tris-HCl, 2 mM TCEP) overnight. The protein was aliquoted and frozen at −80° C. until further use.
Sirtuin modulating compounds that activated SIRT1 were identified using the assay described above and are shown below in Table 3. The EC1.5 values represent the concentration of test compounds that result in 150% activation of SIRT1. NT means that the compound was not tested using the indicated assay. NA means that the compound was not active in the indicated assay.

On to `O=C(Nc1ccccc1-c1nc2cc(CN3CCOCC3)cnc2s1)c1cccc(-c2ccccc2)c1` [Compound 1], for which the “EC1.5 (concentration of test compound that results in 150% activation of SIRT1)” value was 233 NM and the Emax came out at 241%.

Take `O=C(Nc1ccccc1-c1nc2cc(CN3CCOCC3)cnc2s1)c1cc(-c2ccccc2)no1` [Compound 2]: the Emax worked out at 132%.

For `O=C(Nc1ccccc1-c1nc2cc(CN3CCOCC3)cnc2s1)c1cc(-c2ccccc2)n[nH]1` [Compound 3], the “EC1.5 (concentration of test compound that results in 150% activation of SIRT1)” value is listed as 1620 NM and the Emax was determined as 246%.

`O=C(Nc1ccccc1-c1nc2cc(CN3CCOCC3)cnc2s1)c1cccc(-c2ccccn2)c1` [Compound 4]: the “EC1.5 (concentration of test compound that results in 150% activation of SIRT1)” value is 504 NM and the Emax amounted to 321%.

`O=C(Nc1ccccc1-c1nc2cc(CN3CCOCC3)cnc2s1)c1cccc(-c2cccnc2)c1` [Compound 5]: the “EC1.5 (concentration of test compound that results in 150% activation of SIRT1)” value is recorded as 665 NM and the Emax is 281%.

As to `O=C(Nc1ccccc1-c1nc2cc(CN3CCOCC3)cnc2s1)c1cccc(-c2ccncc2)c1` [Compound 6], the “EC1.5 (concentration of test compound that results in 150% activation of SIRT1)” value was found to be 746 NM and the Emax was 274%.

Regarding `O=C(Nc1ccccc1-c1nc2cc(CN3CCNCC3)cnc2s1)c1cccc(-c2ccccn2)c1` [Compound 8], the “EC1.5 (concentration of test compound that results in 150% activation of SIRT1)” value is 340 NM and the Emax was determined as 471%.

For `O=C(Nc1ccccc1-c1nc2cc(CN3CCNCC3)cnc2s1)c1cccc(-c2cccnc2)c1` [Compound 9], the “EC1.5 (concentration of test compound that results in 150% activation of SIRT1)” value was 416 NM and the Emax was found to be 392%.

On to `O=C(Nc1ccccc1-c1nc2cc(CN3CCNCC3)cnc2s1)c1cccc(-c2ccncc2)c1` [Compound 10], for which the “EC1.5 (concentration of test compound that results in 150% activation of SIRT1)” value was found to be 492 NM and the Emax was found to be 316%.

For `NC1CCN(Cc2cnc3sc(-c4ccccc4NC(=O)c4cccc(-c5ccccc5)c4)nc3c2)CC1` [Compound 11], the “EC1.5 (concentration of test compound that results in 150% activation of SIRT1)” value came to 78 NM and the Emax was determined as 578%.

For the compound `NC1CCN(Cc2cnc3sc(-c4ccccc4NC(=O)c4cccc(-c5ccncc5)c4)nc3c2)CC1` [Compound 12], the “EC1.5 (concentration of test compound that results in 150% activation of SIRT1)” value came to 249 NM and the Emax amounted to 550%.

`O=C(Nc1ccccc1-c1nc2cc(CN3CCCC3)cnc2s1)c1cccc(-c2ccccc2)c1` [Compound 13]: the “EC1.5 (concentration of test compound that results in 150% activation of SIRT1)” value was 584 NM and the Emax was 252%.

In the case of `CC(C)NCc1cnc2sc(-c3ccccc3NC(=O)c3cccc(-c4ccccn4)c3)nc2c1` [Compound 14], the “EC1.5 (concentration of test compound that results in 150% activation of SIRT1)” value amounted to 937 NM and the Emax is 381%.

Take `C[C@@H]1CN(Cc2cnc3sc(-c4ccccc4NC(=O)c4cccc(-c5ccccn5)c4)nc3c2)C[C@H](C)N1` [Compound 15]: the “EC1.5 (concentration of test compound that results in 150% activation of SIRT1)” value worked out at 627 NM and the Emax turned out to be 531%.

As for `C[C@@H]1CN(Cc2cnc3sc(-c4ccccc4NC(=O)c4cccc(-c5cccnc5)c4)nc3c2)C[C@H](C)N1` [Compound 16], the “EC1.5 (concentration of test compound that results in 150% activation of SIRT1)” value is recorded as 674 NM and the Emax worked out at 405%.

Regarding `C[C@@H]1CN(Cc2cnc3sc(-c4ccccc4NC(=O)c4cccc(-c5ccncc5)c4)nc3c2)C[C@H](C)N1` [Compound 17], the “EC1.5 (concentration of test compound that results in 150% activation of SIRT1)” value turned out to be 683 NM and the Emax was 360%.

With `NC1CCN(Cc2cnc3sc(-c4ccccc4NC(=O)c4cccc(-c5cccnc5)c4)nc3c2)CC1` [Compound 18], the “EC1.5 (concentration of test compound that results in 150% activation of SIRT1)” value is given as 620 NM and the Emax was found to be 457%.

As for `CC(C)NCc1cnc2sc(-c3ccccc3NC(=O)c3cccc(-c4ccccc4)c3)nc2c1` [Compound 19], the “EC1.5 (concentration of test compound that results in 150% activation of SIRT1)” value is 722 NM and the Emax amounted to 198%.

With `O=C(Nc1ccccc1-c1nc2cc(CN3CCCC3)cnc2s1)c1cccc(-c2ccccn2)c1` [Compound 20], the “EC1.5 (concentration of test compound that results in 150% activation of SIRT1)” value was 687 NM and the Emax was 224%.

On to `NC1CCN(Cc2cnc3sc(-c4ccccc4NC(=O)c4cccc(-c5ccccn5)c4)nc3c2)CC1` [Compound 21], for which the “EC1.5 (concentration of test compound that results in 150% activation of SIRT1)” value is 162 NM and the Emax worked out at 906%.

Consider `CC(C)NCc1cnc2sc(-c3ccccc3NC(=O)c3cccc(-c4ccncc4)c3)nc2c1` [Compound 22], for which the “EC1.5 (concentration of test compound that results in 150% activation of SIRT1)” value is 2620 NM and the Emax worked out at 417%.

Regarding `CC(C)NCc1cnc2sc(-c3ccccc3NC(=O)c3cccc(-c4cccnc4)c3)nc2c1` [Compound 23], the “EC1.5 (concentration of test compound that results in 150% activation of SIRT1)” value is given as 1950 NM and the Emax stood at 241%.

For `C[C@@H]1CN(Cc2cnc3sc(-c4ccccc4NC(=O)c4cccc(-c5ccccc5)c4)nc3c2)C[C@H](C)N1` [Compound 24], the “EC1.5 (concentration of test compound that results in 150% activation of SIRT1)” value amounted to 94 NM and the Emax turned out to be 299%.

`O=C(Nc1ccccc1-c1nc2cc(CN3CC[C@@H](F)C3)cnc2s1)c1cccc(-c2ccccc2)c1` [Compound 25]: the “EC1.5 (concentration of test compound that results in 150% activation of SIRT1)” value came out at 469 NM and the Emax is 203%.

Turning to `O=C(Nc1ccccc1-c1nc2cc(CN3CC[C@@H](F)C3)cnc2s1)c1cccc(-c2ccccn2)c1` [Compound 26], the “EC1.5 (concentration of test compound that results in 150% activation of SIRT1)” value worked out at 455 NM and the Emax came out at 192%.

Take `O=C(Nc1ccccc1-c1nc2cc(CN3CC[C@@H](F)C3)cnc2s1)c1cccc(-c2cccnc2)c1` [Compound 27]: the “EC1.5 (concentration of test compound that results in 150% activation of SIRT1)” value is reported as 913 NM and the Emax is 185%.

With `CC(C)NCc1cnc2sc(-c3ccccc3NC(=O)c3cncc(-c4ccccc4)c3)nc2c1` [Compound 28], the “EC1.5 (concentration of test compound that results in 150% activation of SIRT1)” value turned out to be 3590 NM and the Emax came to 162%.

In the case of `O=C(Nc1ccccc1-c1nc2cc(CN3C[C@@H]4C[C@H]3CN4)cnc2s1)c1cccc(-c2cccnc2)c1` [Compound 29], the “EC1.5 (concentration of test compound that results in 150% activation of SIRT1)” value was determined as 462 NM and the Emax was found to be 378%.

Take `O=C(Nc1ccccc1-c1nc2cc(CN3CC[C@@H](F)C3)cnc2s1)c1cccc(-c2ccc[n+]([O-])c2)c1` [Compound 30]: the “EC1.5 (concentration of test compound that results in 150% activation of SIRT1)” value came out at 986 NM and the Emax amounted to 142%.

`O=C(Nc1ccccc1-c1nc2cc(CN3CC[C@@H](F)C3)cnc2s1)c1cccc(-c2ncccn2)c1` [Compound 31]: the “EC1.5 (concentration of test compound that results in 150% activation of SIRT1)” value is recorded as 1000 NM and the Emax came to 168%.

Regarding `Cc1nc(-c2cccc(C(=O)Nc3ccccc3-c3nc4cc(CN5CC[C@@H](F)C5)cnc4s3)c2)cs1` [Compound 32], the “EC1.5 (concentration of test compound that results in 150% activation of SIRT1)” value worked out at 815 NM and the Emax worked out at 162%.
